The experiment in a line: Inhibition of Pisum sativum (pea) adenylate deaminase.

`O=P(O)(O)OC[C@H]1O[C@@H](c2n[nH]c3cncnc23)[C@H](O)[C@@H]1O` had an IC50 of 100 nM.

For the origin of these results see BindingDB's records for doi:10.1016/s0960-894x(99)00298-x (Agrevo, 1999).
